Source: publication PMC6331810, “Novel Coumarin-Containing Aminophosphonatesas Antitumor Agent: Synthesis, Cytotoxicity, DNA-Binding and Apoptosis Evaluation” (Molecules, 2015)

How the values were obtained:
[1] = test system: MGC-803 (human lung adenocarcinoma cell line); assay: MTT cytotoxicity assay, MGC-803; type: cell-based; conditions: 48 h, no irradiation, mean ± SD of three experiments
Procedure: (§1) Cell Lines. The following in vitro human cancer cell lines were used: HCT-116 (Human colorectal cells), human KB (human nasopharyngeal carcinoma cells), MGC-803 (human lung adenocarcinoma cell line), HUVEC (Human Umbilical Vein Endothelial Cells). The cell lines (HCT-116, KB, MGC-803 and HUVEC) were purchased from the Cell Resource Center of Shanghai Institutes for Biological Sciences, the Academy of Sciences of China.
(§2) Cell Culture. HCT-116, human KB, MGC-803 and HUVEC cells were cultured in Dulbecco Modified Eagle Medium (DMEM; HyClone, Los Angeles, CA, USA), containing 4.0 mM L-Glutamine and 4500 mg/L Glucose, supplemented with 10% (v/v) foetalbovine serum (FBS; HyClone). The cell culturemedia was supplemented with penicillin/streptomycin at 100 Units/mL as adherent monolayers. Cell cultures were kept in a humidified incubator with 5% CO2 at 37 °C. Stock solutions were prepared in dimethyl sulfoxide (DMSO) and further dilutions were made with fresh culture medium. The concentration of DMSO in the final culture medium was 1%, which had no effect on the cell viability.
(§3) MTT Assay. Chemosensitivity was assessed using 3-(4,5-dimethylthiazol-2-yl)-2,5-diphenyl tetrazolium bromide (MTT) assay. Briefly, exponentially growing HCT-116 (3000–4000 cells/well), human KB (2000–3000 cells/well) and MGC 803 (2000–3000 cells/well) were seeded into 96-well plates and treated with indicated concentrations of samples for 48 h, and then […] of MTT (10 mg/mL) was added. After incubation for 4 h at 37 °C, the purple formazan crystals (i.e., a reduced form of MTT) generated from viable cells were dissolved by adding 100 μL DMSO in each well. The plates were swirled gently for 10 min to dissolve the precipitate, and quantified by measuring the optical density (OD) of the plates at a wavelength of 490 nm on plate reader (TECAN infinite M1000). Each concentration was repeated in three wells and the same experimental conditions were provided for all compounds and MTT analysis was repeated three times for each cell line.

[2] = test system: HUVEC (Human Umbilical Vein Endothelial Cells); assay: MTT cytotoxicity assay, HUVEC normal cells; type: cell-based; conditions: no irradiation, mean ± SD of three experiments
Procedure: as §1, §2, §3

[3] = test system: HCT-116 (Human colorectal cells); assay: MTT cytotoxicity assay, HCT-116; type: cell-based; conditions: MTT, 48 h, no irradiation, mean ± SD of three experiments
Procedure: as §1, §2, §3

[4] = test system: human KB (human nasopharyngeal carcinoma cells); assay: MTT cytotoxicity assay, human KB; type: cell-based; conditions: 48 h, no irradiation, mean ± SD of three experiments
Procedure: as §1, §2, §3

CT-DNA [5] = assay: Spectrofluorimetric titration with CT-DNA (Stern-Volmer and binding constants); set-up: species or system calf; conditions: from F0/F-1 vs [DNA]; Tris-HCl buffer pH 7.2
Procedure: The DNA binding properties of compounds 8a–8j were evaluated based on their affinity or interaction with CT-DNA, measured with fluorescence spectrometric titration.
The calibration curve for determination of DNA was constructed by adding different proportion of DNA to a 2.0 × 10^−3 M compound 8j solution (pH = 7.2 Tris-HCl buffer). […] [Q] is the concentration of quencher. KSV is the Stern-Volmer constant and KQ is the bimolecular quenching rate constant. τ0 is the lifetime of the fluorophore in the absence of quencher and for most biomolecules τ0 is about 10^−8 s. The Stern-Volmer constant, KSV, for compound 8j has been determined from the plot of F0/F-1 vs. [DNA] (see Figure 2) and found to be 5.11 × 10^2 M^−1.
When small molecules binding independently to a set of equivalent sites on a macromolecule, the equilibrium between free and bound molecules is given by the equation [28]: (2) lg (F0/F-1) = lgKb + nlg[Q] where Kb and n are the binding constant and the number of binding sites, respectively, which could be got from the curve of lg(F0/F-1) vs. lg[Q]. The plot of lg(F0/F-1) vs. lg[DNA] has been shown in Figure 3 for compound 8j and indicates a simple binding process for the compound.
All fluorescence experiments were carried out on a Perkin-Elmer LS50B luminescence spectrometer. Fluorescence spectra were measured at rt using quartz cells of 1cm path. To the solutions of the drugs (2.0 × 10^−3 M) in 2.5 mL Tris-HCl buffer (pH = 7.2) were added aliquots of CT-DNA (2.0 × 10^−3 M) solution containing drugs (2.0 × 10^−3 M) in 2.5 mL Tris-HCl buffer (pH = 7.2). This operation ensured that the concentration of CT-DNA increased gradually from 0 to 360 µM, while the concentrations of drugs were kept constant. The mixing was achieved by stirring for 10min. Then, the corresponding fluorescence spectra were measured (ex 325 nm, ex/em 1.5 nm/1.5 nm). Binding constants were derived from the modified.

HCT-116 cells = assay: Apoptosis and cell cycle analysis by flow cytometry (PI staining); type: cell-based, human; conditions: HCT-116, 48 h at IC50 concentration; untreated cells 35.32%
Procedure: Compared to the control (untreated cells), changes in the cell cycle distribution of treated HCT-116 cells were evident.
Figure 6 Inhibition of cell cycle progress in HCT-116 cells treated with compounds 8d, 8f, 8c and 8j for 48 h. Cells were fixed with ethanol and stained with PI. Cell cycle distribution was analyzed by flow cytometry. First peak represents sub-G1 peak, which was taken as the fraction of the apoptotic cell population. TEXT PRINTED IN THE PICTURE: 8d: Diploid: 100.00%; Dip G1: 87.24 % at 74.84; Dip G2: 7.42 % at 147.44; Dip S: 5.34 % | 8f: Diploid: 100.00%; Dip G1: 74.25 % at 73.13; Dip G2: 10.86 % at 144.07; Dip S: 14.89 % | 8c: Diploid: 100.00%; Dip G1: 82.72 % at 72.85; Dip G2: 6.28 % at 143.51; Dip S: 11.00% | 8j: Diploid: 100.00%; Dip G1: 15.12 % at 45.10; Dip G2: 52.47 % at 88.84; Dip S: 32.40%; Apoptosis: 4.01 % Mean: 33.84 | Control (−): Diploid: 100.00%; Dip G1: 35.32 % at 52.60; Dip G2: 19.20 % at 103.62; Dip S: 45.84% DOUBTS OF THE COPYIST ABOUT THIS PICTURE: Print is small throughout, so 3, 5, 6, 8 and 9 cannot be told apart with certainty in the values below; best readings are given. / 8d, Dip G1: 87.24 % at 74.84, the 8s uncertain / 8d, Dip S: 5.34, the 5 and 3 uncertain / 8f, Dip G2: 10.86 % at 144.07, the 8 and 6 uncertain / 8f, Dip S: 14.89, the 8 and 9 uncertain / 8c, Dip G1: 82.72 % at 72.85, the 8s and 5 uncertain / 8c, Dip G2: 6.28 % at 143.51, the 6, 8, 3 and 5 uncertain / 8j, Dip G2: 52.47 % at 88.84, the 5 and 8s uncertain / 8j, Apoptosis: 4.01 % Mean: 33.84, the 3s and 8 uncertain / Control (−), Dip G1: 35.32 % at 52.60, the 3s, 5s and 6 uncertain / Control (−), Dip G2: 19.20 % at 103.62, the 9, 3 and 6 uncertain / Control (−), Dip S: 45.84, the 5 and 8 uncertain / Control (−) is an untreated control, not a compound; it is included because results are printed with it. / G2/G1: 1.97 and %CV, printed in every plot, are left out as fit parameter and statistic.
Apoptosis was quantified by assessing the fraction of cells with sub-G1 DNA content by flow cytometry. The cells lines were treated with indicated concentrations of compounds […]. After incubated for 48 h, cells were washed twice with ice-cold PBS, fixed and permeabilized with ice-cold 70% ethanol at −20 °C overnight. The cells were treated with 100 μg/mL RNase A at 37 °C for 30 min after washed with ice-cold PBS, and finally stained with 1 mg/mL propidium iodide (PI) in the dark at 4 °C for 30 min. Analysis was performed with the system software (Cell Quest; BD Biosciences, Franklin Lakes, NJ, USA).

GelRed/CT-DNA = assay: GelRed-DNA competitive binding (fluorescence quenching); set-up: species or system calf; conditions: I0/I vs [Q]; [GelRed]/[DNA] = 1:10, ex 350 nm, em 590 nm
CT-DNA [6] = assay: Circular dichroism spectra of CT-DNA; type: binding, calf; conditions: [compound]/[DNA] 1:10; 1.5 × 10^−4 M DNA, 1.5 × 10^−5 M compound
Procedure: CD absorption spectra of DNA were measured in TBS at a 100 nm/min scan rate in the wavelength range from 200 to 500 nm, with 1.5 × 10^−4 M DNA in the absence and presence of each compound of 1.5 × 10^−5 M, respectively. The CD signal of TBS was taken as the background and subtracted from the spectra. All the spectroscopic experiments were performed at 25 °C.

[7] = Homo sapiens, MGC-803, light or radiation study
[8] = Homo sapiens, HUVEC, light or radiation study
[9] = Homo sapiens, HCT-116, light or radiation study
[10] = Homo sapiens, light or radiation study

In the case of `Cc1cc(=O)oc2cc(O)ccc12` [Compound 2, 7-Hydroxy-4-methyl-2H-chromen-2-one, reference compound], the IC50 [1, 7] is reported as > 100 µM, the IC50 [2, 8] is reported as > 100 µM and the IC50 [3, 9] is reported as > 100 µM. The IC50 [4, 10] was > 50 µM and the “KSV (Stern-Volmer constant)” value (CT-DNA [5]) was 442 M⁻¹.

`O=c1[nH]cc(F)c(=O)[nH]1` [Compound 5-Fu, 5-fluoro-2,4(1H,3H)pyrimidinedione, reference compound] was tested, and the IC50 [1, 7] was 15.3 ± 1.96 µM, the IC50 [2, 8] was 56 ± 3.21 µM and the IC50 [3, 9] was 10.1 ± 2.2 µM. It also gave an IC50 [4, 10] of 1.23 ± 1.09 µM.

`CCOP(=O)(OCC)C(NC(=O)CCOc1ccc2c(C)cc(=O)oc2c1)c1ccccc1` (stereo not shown) [Compound 8a, Diethyl(3-(4-methyl-2-oxo-2H-chromen-7-yloxy)propanamido)(phenyl)methylphosphonate] was tested, and the IC50 [1] was > 100 µM, the IC50 [2] was > 100 µM and the IC50 [3] was > 100 µM. The IC50 [4] was > 50 µM and the “KSV (Stern-Volmer constant)” value (CT-DNA [5]) was 340 M⁻¹.

With `CCOP(=O)(OCC)C(NC(=O)CCOc1ccc2c(C)cc(=O)oc2c1)c1ccccc1F` (stereo not shown) [Compound 8b, Diethyl(3-(4-methyl-2-oxo-2H-chromen-7-yloxy)propanamido)(2-fluorophenyl)methylphospho-nate] the IC50 [1] was > 100 µM, the IC50 [2] was > 100 µM and the IC50 [3] was > 100 µM. For the same molecule, the IC50 [4] was > 50 µM and the “KSV (Stern-Volmer constant)” value (CT-DNA [5]) was 299 M⁻¹.

In the case of `CCOP(=O)(OCC)C(NC(=O)CCOc1ccc2c(C)cc(=O)oc2c1)c1ccccc1Cl` (stereo not shown) [Compound 8c, Diethyl(3-(4-methyl-2-oxo-2H-chromen-7-yloxy)propanamido)(2-chlorophenyl)methylphospho-nate], the IC50 [1] is reported as 79.4 ± 3.82 µM, the IC50 [2] is reported as > 100 µM and the IC50 [3] is reported as 88.7 ± 1.69 µM. The IC50 [4] was 33.4 ± 1.2 µM, the “KSV (Stern-Volmer constant)” value (CT-DNA [5]) was 481 M⁻¹ and the G1-phase population (HCT-116 cells) was 82.72%.

In the case of `CCOP(=O)(OCC)C(NC(=O)CCOc1ccc2c(C)cc(=O)oc2c1)c1ccc(Cl)cc1` (stereo not shown) [Compound 8d, Diethyl(3-(4-methyl-2-oxo-2H-chromen-7-yloxy)propanamido)(4-chlorophenyl)methylphospho-nate], the IC50 [1] is reported as 76.9 ± 3.89 µM, the IC50 [2] is reported as > 100 µM and the IC50 [3] is reported as 86.2 ± 1.86 µM. The IC50 [4] was 7.8 ± 5.36 µM, the “KSV (Stern-Volmer constant)” value (CT-DNA [5]) was 429 M⁻¹ and the G1-phase population (HCT-116 cells) was 87.24%.

With `CCOP(=O)(OCC)C(NC(=O)CCOc1ccc2c(C)cc(=O)oc2c1)c1ccccc1Br` (stereo not shown) [Compound 8e, Diethyl(3-(4-methyl-2-oxo-2H-chromen-7-yloxy)propanamido)(2-bromophenyl)methylphospho-nate] the IC50 [1] was 67.5 ± 3.26 µM, the IC50 [2] was > 100 µM and the IC50 [3] was 90.5 ± 1.09 µM. For the same molecule, the IC50 [4] was 9.55 ± 0.09 µM and the “KSV (Stern-Volmer constant)” value (CT-DNA [5]) was 475 M⁻¹.

For `CCOP(=O)(OCC)C(NC(=O)CCOc1ccc2c(C)cc(=O)oc2c1)c1ccc(Br)cc1` (stereo not shown) [Compound 8g, Diethyl(3-(4-methyl-2-oxo-2H-chromen-7-yloxy)propanamido)(4-bromophenyl)methylphosph-onate], the IC50 [1] was 85.6 ± 2.83 µM, the IC50 [2] was > 100 µM and the IC50 [3] was 88.5 ± 4.62 µM. For the same molecule, the IC50 [4] was 7.27 ± 6.18 µM and the “KSV (Stern-Volmer constant)” value (CT-DNA [5]) was 410 M⁻¹.

`CCOP(=O)(OCC)C(NC(=O)CCOc1ccc2c(C)cc(=O)oc2c1)c1ccccc1OC` (stereo not shown) [Compound 8h, Diethyl(3-(4-methyl-2-oxo-2H-chromen-7-yloxy)propanamido)(2-methoxyphenyl)methylphos-phonate] was tested, and the IC50 [1] was 36.9 ± 1.96 µM, the IC50 [2] was > 100 µM and the IC50 [3] was 23.7 ± 5.89 µM. The “KSV (Stern-Volmer constant)” value (CT-DNA [5]) was 357 M⁻¹, the “Kq (quenching constant of GelRed bound to DNA)” value (GelRed/CT-DNA) was 2410 M⁻¹ and the “Negative AI decrease (CD absorption peak of CT-DNA at 247 nm)” value (CT-DNA [6]) was 28.5%. For the same molecule, the “Positive AI decrease (CD absorption peak of CT-DNA at 281 nm)” value (CT-DNA [6]) was 34.5%.

With `CCOP(=O)(OCC)C(NC(=O)CCOc1ccc2c(C)cc(=O)oc2c1)c1ccc2ccccc2c1` (stereo not shown) [Compound 8i, Diethyl(3-(4-methyl-2-oxo-2H-chromen-7-yloxy)propanamido)(naphthalen-2-yl)methylphosph-onate] the IC50 [1] was 41.5 ± 2.86 µM, the IC50 [2] was > 100 µM and the IC50 [3] was 38.9 ± 0.04 µM. The “KSV (Stern-Volmer constant)” value (CT-DNA [5]) was 18100 M⁻¹.
